Patent US9388175B2, “2-aniline-4-aryl substituted thiazole derivatives” (Janssen Pharmaceutica N.V., priority 2005, dated 2016)

Target: T1, hα7-wt nAChR stably expressed in the GH4C1 cell line (Homo sapiens, UniProt P36544)
T1 construct: expressed in transfected cells
Assay: Ca2+ flux imaging (FLIPR) of PAM activity with choline as agonist
Format: cell-based
Settings: efficacy relative to 100 μM choline alone (defined as 1); peak fluorescence, fluo-4AM; compounds tested 0.1 μM to 30 μM, efficacy criterion at 10 μM
Source text: Stable expression in mammalian cells in general and rat GH4C1 cells in particular, of cDNA clones encoding the human α7 wild-type sequence (hα7-wt nAChR) and in which the coding region is placed downstream of a promoter results in the appearance of functional α7 nAChRs on the surface of the mammalian cells. This technique has provided a powerful means of assessing the function of α7 wild-type protein. Given the fact that the cation permeability of the α7 nicotinic receptor preferentially favours calcium, fluorescent imaging of Ca^2+ flux through the hα7-wt nAChR stably expressed in the GH4C1 cell line was used as a first means of assaying modulator activity of the compounds of the present invention.
a) Assay Buffer • Hanks buffered saline solution (HBSS, Invitrogen, Belgium), supplemented with 10 mM HEPES (Invitrogen, Belgium), CaCl2 to a final concentration of 5 mM, 0.1% Bovine serum albumin (Sigma-Aldrich NV, Belgium), 2.5 mM probenecid (Sigma-Aldrich NV, Belgium).
b) Calcium-Sensitive Dye—Fluo-4AM • Fluo-4AM (Molecular Probes, USA) was dissolved in DMSO containing 10% Pluronic acid (Molecular Probes, USA) to give a stock solution which was aliquoted and could be stored at −20° C. until later use. On the day of the experiment Fluo-4AM stock was defrosted and diluted in DMEM/F12 (Invitrogen, Belgium) containing 2.5 mM probenicid and 0.1% BSA to give a final concentration of 2 μM.
c) 96-well Plates • BD Biocoat poly-D-lysine 96-well black/clear bottom plates (BD Biosciences, Belgium)
d) Calcium Flux Measurement • A Fluorimetric Imaging Plate Reader (FLIPR, Molecular Devices Corporation, Sunnyvale, USA) was used to measure intracellular free-calcium flux signals
Monolayers of hα7-wt nAChR-expressing cells were grown in multi-well plates, in particular black-sided, transparent bottomed 96 well plates coated with poly-D-lysine for 24 hours prior to loading with a fluorescent calcium indicator, in a particular embodiment loading with fluo-3 or fluo-4AM for up to 90 minutes, in an even more particular embodiment loading with fluo-4AM for up to 90 minutes, and in a preferred embodiment loading with fluo-4AM for 60 minutes.
In a particular embodiment, the α7 nicotinic receptor agonist was choline, a more particular embodiment choline applied at a sub-maximal concentration of 100 μM.
A control response to choline was calculated on each plate from the difference in peak fluorescence in wells receiving either choline or assay buffer alone. Compounds of the present invention were tested at a concentration range from 0.1 μM to 30 μM.
The activity ranges are defined as follows; A denotes an activity range from 1.1 till 1.5, B denotes an activity range from 1.5 till 2.0, C denotes an activity range from 2.0 till 3.0, D denotes an activity range from 3.0 till 4.5 and E denotes an efficacy from at least 4.5.

T1 sequence (P36544 23-502): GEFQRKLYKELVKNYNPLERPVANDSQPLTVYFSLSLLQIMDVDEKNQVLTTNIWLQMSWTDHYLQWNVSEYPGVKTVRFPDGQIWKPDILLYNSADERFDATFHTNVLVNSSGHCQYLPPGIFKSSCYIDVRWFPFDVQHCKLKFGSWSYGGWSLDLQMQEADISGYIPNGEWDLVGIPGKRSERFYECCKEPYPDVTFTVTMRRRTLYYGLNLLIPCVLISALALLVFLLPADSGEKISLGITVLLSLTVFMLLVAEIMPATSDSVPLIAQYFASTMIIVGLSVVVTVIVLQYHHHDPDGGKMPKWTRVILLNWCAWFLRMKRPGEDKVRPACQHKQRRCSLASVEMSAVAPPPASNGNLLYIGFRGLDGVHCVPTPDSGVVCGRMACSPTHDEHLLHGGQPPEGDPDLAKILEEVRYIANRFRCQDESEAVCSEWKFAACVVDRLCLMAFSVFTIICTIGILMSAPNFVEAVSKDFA

Structure (SMILES) | Activity Range
CNC(=O)Cc1sc(Nc2cc(Cl)c(OC)cc2OC)nc1-c1ccc2c(c1)OCCO2 [Compound 97, 2-[(5-chloro-2,4-dimethoxyphenyl)amino]-4-(2,3-dihydro-1,4-benzodioxin-6-yl)-N-methyl-5-thiazoleacetamide] | E (E denotes an efficacy from at least 4.5)
Cc1cncc(-c2nc(Nc3cccc(Cl)c3Cl)sc2CO)c1 [Compound 128] | E (E denotes an efficacy from at least 4.5)
Fc1cncc(-c2csc(Nc3ccc(F)c(C(F)(F)F)c3)n2)c1 [Compound 5] | D (D denotes an activity range from 3.0 till 4.5)
Cc1sc(Nc2ccc(Br)cc2)nc1-c1cccnc1 [Compound 137] | D (D denotes an activity range from 3.0 till 4.5)
Fc1ccc(Nc2nc(-c3cnc4sccn34)cs2)cc1C(F)(F)F [Compound 44] | C (C denotes an activity range from 2.0 till 3.0)
COCCNC(=O)Cc1sc(Nc2cc(Cl)ccc2Cl)nc1-c1ccncc1 [Compound 106, 2-[(2,5-dichlorophenyl)amino]-N-(2-methoxyethyl)-4-(4-pyridinyl)-5-thiazoleacetamide] | E (E denotes an efficacy from at least 4.5)
CCCc1nc(Nc2cccc(C(F)(F)F)c2)sc1CO [Compound 117] | E (E denotes an efficacy from at least 4.5)
OCc1sc(Nc2ccc(F)c(C(F)(F)F)c2)nc1-c1ccncc1 [Compound 89] | E (E denotes an efficacy from at least 4.5)
CCOC(=O)c1sc(Nc2cccc(C(F)(F)F)c2)nc1C(F)(F)F [Compound 147] | E (E denotes an efficacy from at least 4.5)
N#Cc1ccc(Nc2nc(-c3cnc4ccccn34)cs2)cc1 [Compound 69] | D (D denotes an activity range from 3.0 till 4.5)
COC(=O)CCc1sc(Nc2ccc(OC)cc2)nc1-c1ccc(OC)cc1 [Compound 173, 5-Thiazolepropanoic acid, 4-(4-methoxyphenyl)-2-[(4-methoxyphenyl)amino]-, methyl ester] | D (D denotes an activity range from 3.0 till 4.5)
Fc1ccc(Nc2nc(-c3cccnc3)c(CN3CCOCC3)s2)cc1C(F)(F)F [Compound 90, (4-Fluoro-3-trifluoromethyl-phenyl)-(5-morpholin-4-ylmethyl-4-pyridin-3-yl-thiazol-2-yl)-amine] | C (C denotes an activity range from 2.0 till 3.0)
CNC(=O)c1sc(Nc2cc(Cl)c(OC)cc2OC)nc1-c1ccncc1 [Compound 105] | E (E denotes an efficacy from at least 4.5)
CCOC(=O)c1sc(Nc2cc(Cl)ccc2Cl)nc1-c1ccccc1 [Compound 174, 5-Thiazolecarboxylic acid, 2-[(2,5-dichlorophenyl)amino]-4-phenyl-, ethyl ester] | E (E denotes an efficacy from at least 4.5)
Cc1ccc(Nc2nc(-c3cccnc3)cs2)cn1 [Compound 66] | D (D denotes an activity range from 3.0 till 4.5)
Brc1ccc(Nc2nc(-c3cnc4ccccn34)cs2)cc1 [Compound 58] | C (C denotes an activity range from 2.0 till 3.0)
Cc1ccc(-c2csc(Nc3cccc(C(F)(F)F)c3)n2)cn1 [Compound 68] | E (E denotes an efficacy from at least 4.5)
OCc1sc(Nc2cccc(C(F)(F)F)c2)nc1-c1ccc(Cl)cc1Cl [Compound 31, [4-(2,4-Dichloro-phenyl)-2-(3-trifluoromethyl-phenylamino)-thiazol-5-yl]-methanol] | B (B denotes an activity range from 1.5 till 2.0)
Cc1ccc(-c2nc(Nc3cccc(C(F)(F)F)c3)sc2CO)cn1 [Compound 129] | E (E denotes an efficacy from at least 4.5)
CCOC(=O)c1sc(Nc2ccc(OC)cc2)nc1C(F)(F)F [Compound 154] | E (E denotes an efficacy from at least 4.5)
COCCc1nc(Nc2ccc(OC)cc2)sc1C(=O)OC [Compound 158] | E (E denotes an efficacy from at least 4.5)
FC(F)(F)c1cccc(Nc2nc(-c3ccccc3)cs2)c1 [int. 1] | C (C denotes an activity range from 2.0 till 3.0)
Fc1cccc(-c2csc(Nc3cccc(C(F)(F)F)c3)n2)c1 [int. 12] | C (C denotes an activity range from 2.0 till 3.0)
COc1cc(OC)c(Nc2nc(-c3ccc(F)c(F)c3)c(CC(=O)N3CCCC3)s2)cc1Cl [Compound 132] | E (E denotes an efficacy from at least 4.5)

Structure (SMILES) | Activity Range
c1ccn2c(-c3csc(Nc4ccc5c(c4)CCO5)n3)cnc2c1 [Compound 46] | C (C denotes an activity range from 2.0 till 3.0)
COc1ccc(OC)c(-c2csc(Nc3cccc4[nH]ncc34)n2)c1 [Compound 34] | C (C denotes an activity range from 2.0 till 3.0)
Cc1ccc(Nc2nc(-c3cccnc3)cs2)cc1 [Compound 77] | C (C denotes an activity range from 2.0 till 3.0)
Cc1ccc(Nc2nc(-c3cccnc3)c(F)s2)cc1 [Compound 120] | C (C denotes an activity range from 2.0 till 3.0)
CCOC(=O)c1sc(Nc2ccc(OC)cc2)nc1C1CC1 [Compound 146] | E (E denotes an efficacy from at least 4.5)
Nc1cncc(-c2csc(Nc3ccc(F)c(C(F)(F)F)c3)n2)c1 [Compound 10] | A (A denotes an activity range from 1.1 till 1.5)
CCOC(=O)c1sc(Nc2cccc(C(F)(F)F)c2)nc1C [Compound 143] | E (E denotes an efficacy from at least 4.5)
Cc1ccccc1Nc1nc(-c2ccccc2)c(C(=O)Nc2cccnc2)s1 [Compound 172, 5-Thiazolecarboxamide, 2-[(2-methylphenyl)amino]-4-phenyl-N-3-pyridinyl-] | E (E denotes an efficacy from at least 4.5)
COc1cc(OC)c(Nc2nc(-c3ccncc3)c(CO)s2)cc1Cl [int. 25] | C (C denotes an activity range from 2.0 till 3.0)
CSc1cccc(Nc2nc(-c3cnc4ccccn34)cs2)c1 [Compound 52] | C (C denotes an activity range from 2.0 till 3.0)
CNC(=O)Cc1sc(Nc2cc(Cl)c(OC)cc2OC)nc1-c1ccc(F)c(F)c1 [Compound 134] | E (E denotes an efficacy from at least 4.5)
Fc1ccc(Nc2nc(-c3cnc4ccccn34)cs2)cc1C(F)(F)F [Compound 9] | C (C denotes an activity range from 2.0 till 3.0)
Cc1cc(Nc2nc(-c3cccnc3)cs2)ccc1F [Compound 78] | B (B denotes an activity range from 1.5 till 2.0)
Cc1sc(Nc2ccc(Cl)nc2)nc1-c1cccnc1 [Compound 88] | C (C denotes an activity range from 2.0 till 3.0)
FC(F)(F)c1cccc(Nc2nc(-c3ccoc3)cs2)c1 [Compound 74] | B (B denotes an activity range from 1.5 till 2.0)
Cc1ccc(Nc2nc(-c3ccccc3)c(C(=O)Nc3cccnc3)s2)c(C)c1 [Compound 170, 5-Thiazolecarboxamide, 2-[(2,4-dimethylphenyl)amino]-4-phenyl-N-3-pyridinyl-] | E (E denotes an efficacy from at least 4.5)
COc1ccc(-c2csc(Nc3cc(F)ccc3C)n2)c(OC)c1 [Compound 40] | C (C denotes an activity range from 2.0 till 3.0)
CCOC(=O)c1sc(Nc2cccc(C(F)(F)F)c2)nc1C1CC1 [Compound 145] | E (E denotes an efficacy from at least 4.5)
O=C(Cc1sc(Nc2cc(Cl)ccc2Cl)nc1-c1ccncc1)N1CCCC1 [Compound 162] | E (E denotes an efficacy from at least 4.5)
COc1cc(OC)c(Nc2nc(-c3ccncc3)c(CN3CCOCC3)s2)cc1Cl [Compound 100] | D (D denotes an activity range from 3.0 till 4.5)
COCc1sc(Nc2cc(Cl)ccc2Cl)nc1-c1ccccc1 [Compound 98] | E (E denotes an efficacy from at least 4.5)
COCc1nc(Nc2cccc(C(F)(F)F)c2)sc1C(=O)OC [Compound 103] | E (E denotes an efficacy from at least 4.5)
Cc1sc(Nc2ccc(C(F)(F)F)cc2)nc1-c1cccnc1 [Compound 87] | C (C denotes an activity range from 2.0 till 3.0)
CCOC(=O)NCc1sc(Nc2cccc(C(F)(F)F)c2)nc1-c1cccnc1 [Compound 168] | E (E denotes an efficacy from at least 4.5)
